Key:
[1] = test system: amyloid beta peptide; experiment: In vivo inhibition of beta-secretase (CSF and brain abeta reduction); conditions: rat, PD dose of 10 mg/kg, after 4 hrs
From the text: Several animal models, including mouse, rat, dog, and monkey, may be used to screen for inhibition of beta-secretase activity in vivo following administration of a test compound sample. Animals used in this invention can be wild type, transgenic, or gene knockout animals. For example, the Tg2576 mouse model, prepared and conducted as described in Hsiao et al., 1996, Science 274, 99-102, and other non-transgenic or gene knockout animals are useful to analyze in vivo inhibition of Amyloid beta peptide (Abeta) production in the presence of inhibitory test compounds. Generally, 2 to 18 month old Tg2576 mice, gene knockout mice or non-transgenic animals are administered test compounds formulated in vehicles, such as cyclodextran, phosphate buffers, hydroxypropyl methylcellulose or other suitable vehicles. One to twenty-four hours following the administration of compound, animals are sacrificed, and brains as well as cerebrospinal fluid (CSF) and plasma are removed for analysis of A-beta levels and drug or test compound concentrations (Dovey et al., 2001, Journal of Neurochemistry, 76,173-181) Beginning at time 0, animals are administered by oral gavage, or other means of delivery such as intravenous injection, an inhibitory test compound of up to 100 mg/kg in a standard, conventional formulation, such as 2% hydroxypropyl methylcellulose, 1% Tween80. A separate group of animals receive 2% hydroxypropyl methylcellulose, 1% Tween80 alone, containing no test compound, and serve as a vehicle-control group. At the end of the test period, animals are sacrificed and brain tissues, plasma or cerebrospinal fluid are collected. Brains are either homogenized in 10 volumes (w/v) of 0.2% diethylamine (DEA) in 50 mM NaCl (Best et al., 2005, Journal of Pharmacology and Experimental Therapeutics, 313, 902-908), or in 10 volumes of 0.5% TritonX-100 in Tris-buffered saline (pH at about 7.6). Homogenates are centrifuged at 355,000 g, 4° C. for 30 minutes. CSF or brain supernatants are then analyzed for the presence of A-beta peptide by specific sandwich ELISA assays based on ECL (Electrochemiluminescence) technology. For example, rat Abeta40 is measured using biotinylated-4G8 (Signet) as a capture antibody and Fab40 (an in-house antibody specific to the C-terminal of Abeta40) as a detection antibody. For example, 4 hours after administration of 30 mg/kg oral dose of the test compound in 2% hydroxypropyl methylcellulose, 1% Tween80 (pH2.2) to 200 g male Sprague Dawley rats, amyloid beta peptide levels are measured for reduction by X % and Y % in cerebrospinal fluid and brain, respectively, when compared to the levels measured in the vehicle-treated or control mice.
Actual vehicles used: Oral: 2% HPMC, 1% Tween80, pH 2.2 […]

[2] = target: BACE1 (Homo sapiens, UniProt P56817); experiment: In vitro enzymatic BACE FRET assay; type: biochemical
Description: In Vitro Enzymatic BACE FRET (fluorescence resonance energy transfer) Assay (Enzyme Assay data in the Example Table I)
The assay buffer used in this screen is 0.05 M acetate, pH 4.2, 10% DMSO final, 100 uM genapol (which is a nonionic detergent, below its Critical Micelle Concentration). […] This assay is effectively started by the addition of FRET substrate (50 nM) and the combination is incubated for one hour. The FRET assay is terminated with by addition of Tris buffer, which raises the pH to neutrality, and the fluorescence is determined. The FRET substrate is a peptide with commercially available fluorophore and quencher, on opposite sides of the BACE cleavage site. Proteolytic cleavage of the FRET substrate releases quenching of fluorescence (excitation […] and […]).

[3] = test system: Aβ40 in conditioned medium of cells expressing amyloid precursor protein; experiment: In vitro BACE cell-based assay (HEK cell assay, Aβ40 sandwich ELISA); conditions: Homo sapiens, HEK293; average IC50; Aβ40 after 24 h incubation

BACE1, sequence (P56817 46-501): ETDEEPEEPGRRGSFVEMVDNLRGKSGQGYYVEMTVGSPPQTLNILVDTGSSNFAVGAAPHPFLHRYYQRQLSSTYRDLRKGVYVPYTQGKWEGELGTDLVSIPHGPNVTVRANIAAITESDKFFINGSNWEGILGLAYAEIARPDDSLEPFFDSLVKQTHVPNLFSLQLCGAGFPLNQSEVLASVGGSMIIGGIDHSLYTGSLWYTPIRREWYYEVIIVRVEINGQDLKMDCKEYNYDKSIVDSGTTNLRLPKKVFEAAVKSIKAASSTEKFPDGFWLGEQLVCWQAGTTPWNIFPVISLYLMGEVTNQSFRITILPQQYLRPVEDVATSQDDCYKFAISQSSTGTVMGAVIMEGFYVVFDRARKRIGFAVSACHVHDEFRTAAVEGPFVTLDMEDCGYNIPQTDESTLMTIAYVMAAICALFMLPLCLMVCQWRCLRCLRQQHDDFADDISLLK

SMILES | CSF abeta reduction [1] [%] | brain abeta reduction [1] [%] | IC50 [2] [nM] | IC50 [3] [nM]
NC1=N[C@]2(c3cc(-c4cccnc4F)ccc3Oc3c2cc(C2=CCCOC2)nc3F)c2ccccc21 (single isomer, unassigned) [Example 7-B] | 7 | 10 | 0.5 | 5
NC1=NC2(c3cc(Br)ccc3Oc3cnc(Cl)cc32)c2ccncc21 (stereo not shown) [Example 16, 7-bromo-3-chlorospiro[chromeno[2,3-c]pyridine-5,1′-pyrrolo[3,4-c]pyridin]-3′-amine] |  |  | 9090 | > 10000
NC1=N[C@]2(c3cc(-c4cccnc4F)ccc3Oc3c2cc(C2=CCCOC2)nc3F)c2cccnc21 [Example 17-F, (S)-3-(5,6-dihydro-2H-pyran-3-yl)-1-fluoro-7-(2-fluoropyridin-3-yl)spiro[chromeno[2,3-c]pyridine-5,5′-pyrrolo[3,4-b]pyridin]-7′-amine] |  |  | 0.7 | 3
NC1=N[C@]2(c3cc(-c4cccnc4F)ccc3Oc3c2cc(N2CCOCC2)nc3F)c2cccnc21 [Example 17-G, (S)-1-fluoro-7-(2-fluoropyridin-3-yl)-3-morpholinospiro[chromeno[2,3-c]pyridine-5,5′-pyrrolo[3,4-b]pyridin]-7′-amine] |  |  | 1 | 2
NC1=NC2(c3cc(Br)ccc3Oc3c2cc(Cl)nc3F)c2cccnc21 (stereo not shown) [Example 17c, 7-bromo-3-chloro-1-fluorospiro[chromeno[2,3-c]pyridine-5,5′-pyrrolo[3,4-b]pyridin]-7′-amine] |  |  | > 10000 | > 10000
NC1=NC2(c3cc(-c4cccnc4F)ccc3Oc3c2cc(Cl)nc3F)c2cccnc21 (stereo not shown) [Example 17d, 3-chloro-1-fluoro-7-(2-fluoropyridin-3-yl)spiro[chromeno[2,3-c]pyridine-5,5′-pyrrolo[3,4-b]pyridin]-7′-amine 2,2,2-trifluoroacetate] |  |  | 88 | 4370
NC1=N[C@@]2(c3cc(-c4cccnc4F)ccc3Oc3c2cc(Cl)nc3F)c2cccnc21 [Example 17d-1, (R)-3-chloro-1-fluoro-7-(2-fluoropyridin-3-yl)spiro[chromeno[2,3-c]pyridine-5,5′-pyrrolo[3,4-b]pyridin]-7′-amine] |  |  | > 10000 | > 10000
NC1=N[C@]2(c3cc(-c4cccnc4F)ccc3Oc3c2cc(Cl)nc3F)c2cccnc21 [Example 17d-2, (S)-3-chloro-1-fluoro-7-(2-fluoropyridin-3-yl)spiro[chromeno[2,3-c]pyridine-5,5′-pyrrolo[3,4-b]pyridin]-7′-amine] |  |  | 16 | 1570
NC1=N[C@]2(c3cc(-c4cccnc4F)ccc3Oc3c2cc(-c2ccnc(F)c2)nc3F)c2cccnc21 [Example 17e, (S)-1-fluoro-7-(2-fluoropyridin-3-yl)-3-(2-fluoropyridin-4-yl)spiro[chromeno[2,3-c]pyridine-5,5′-pyrrolo[3,4-b]pyridin]-7′-amine] | 41 | 28 | 0.7 | 7
NC1=NC2(c3ccccc3O1)c1cc(-c3cncnc3)ccc1Oc1cnc(-c3ccnc(F)c3)cc12 (stereo not shown) [Example 20, 3′-(2-fluoropyridin-4-yl)-7′-(pyrimidin-5-yl)spiro[benzo[c][1,3]oxazine-4,5-chromeno[2,3-c]pyridin]-2-amine] |  |  | 2.7 | 106
NC1=NC2(c3cc(-c4cccnc4F)ccc3Oc3cnc(-c4ccnc(F)c4)cc32)c2ncccc2O1 (stereo not shown) [Example 22, 7-(2-fluoropyridin-3-yl)-3-(2-fluoropyridin-4-yl)spiro[chromeno[2,3-c]pyridine-5,4′-pyrido[2,3-e][1,3]oxazin]-2′-amine] |  |  | 9.9 | 805
NC1=NC2(c3ccccc3O1)c1cc(-c3cccnc3)ccc1Oc1cnc(-c3ccnc(F)c3)cc12 (stereo not shown) [Example 23, 3′-(2-fluoropyridin-4-yl)-7′-(pyridin-3-yl)spiro[benzo[e][1,3]oxazine-4,5′-chromeno[2,3-c]pyridin]-2-amine] |  |  | 2.9 | 98
